The values that follow come from US20240376504A1, “ENZYMATIC SYNTHESIS OF MYCOSPORINE-LIKE AMINO ACIDS” (University of Florida Research Foundation, Incorporated, priority 2021, published 2024).

The structures appear in SMILES notation.

In data set [1] the test system is recombinant His6-tagged MysD. Kind of data set: MysD reaction, relative activity of amino acid substrates (MG consumption by HPLC). The format is biochemical, Nostoc linkia NIES-25. The conditions noted are these: 0.25 μM MysD; L-Thr reaction (8 min) set as 100%; from concentrations of disubstituted MAAs produced. As for the experimental part: The current and previous heterologous expression studies supported the function of MysD in the biosynthesis of disubstituted MAAs (FIG. 3).^29,35 To further characterize its catalytic properties, recombinant His6-tagged MysD of N. linkia NIES-25 was prepared from E. coli after a single affinity purification (FIG. 21). The enzyme reaction was performed with MysD (0.5 μM), MG (50 μM), and L-Thr (1 mM) in the presence of ATP (1 mM) and Mg^2+ (10 mM) at room temperature for 2 h. […] No product was formed in the control reactions without enzyme or ATP (FIG. 5A). The requirement of ATP for the MysD reaction supports its prediction as the D-Ala-D-Ala ligase-like enzyme of the ATP grasp superfamily.^29 The optimal temperature and pH of its reaction were determined at 37° C. and pH=8.5 (FIG. 22). Under these optimal reaction conditions, all 20 natural amino acids were screened (5 mM) along with MG (50 μM) in the MysD reaction. […] LC-HRMS and MS/MS analysis indicated the formation of their corresponding disubstituted MAAs, MG-Ala, MG-Arg (observed [M+H]^+: 402.1977; calculated [M+H]^+: 402.1983), MG-Cys (observed [M+H]^+: 349.1059; calculated [M+H]^+: 349.1064), mycosporine-2-Gly (observed [M+H]^+: 303.1182; calculated [M+H]^+: 303.1187), shinorine, and porphyra-334 (FIGS. 24, 25, and 26). L-Ser and L-Thr led to the complete consumption of MG in the MysD reactions after 3 h, followed by L-Cys. […] Nonetheless, the result of this biochemical study well agreed with the production of porphyra-334 along with small amounts of shinorine and MG-Ala in the above heterologous expression study (FIG. 3C). To further understand MysD's substrate preference, the enzyme concentration was lowered to 0.25 μM. […] The consumed MG level in this reaction was set as 100% to normalize its level in the five other reactions, which was determined from the concentrations of produced disubstituted MAAs in the reactions (FIG. 5C). […] Together, the results of these biochemical studies highlight the broad substrate scope of MysD and its strong preference toward L-Thr in the MAA biosynthesis.
MysD Reaction. […] The quality of MG was calculated based on its reported extinction coefficient (28,100 M^−1 cm^−1). […] The reactions were terminated and then analyzed in the HPLC and/or LC-MS analysis. […] First, the reactions were performed with 0.25 μM MysD for 8 min, which led to no more than 50% consumption of MG into porphyra-334 with the best substrate L-Thr and into shinorine with L-Ser. For the other four amino acids, the levels of their corresponding disubstituted MAAs were determined after the reaction time was elongated to 30 min. […]
HPLC and LC-MS Analysis. Samples were analyzed on a Shimadzu Prominence UHPLC system (Kyoto, Japan) coupled with a PDA detector. […]

For data set [2] the following is noted: reported value used to calculate MG; cited from earlier work.

On to `C[C@H](N)C(=O)O` [L-Ala], for which the “consumption level of MG in the MysD reaction relative to that with L-Thr” value in data set [1] worked out at 0.4%.
Same read-out and setting: with `N[C@@H](CS)C(=O)O` [L-Cys] the figure was 0.9%; with `N[C@@H](CO)C(=O)O` [L-Ser], “about 12.7%”; with `C[C@@H](O)[C@H](N)C(=O)O` [L-Thr], 100%.
For `COC1=C(NCC(=O)O)C[C@@](O)(CO)CC1=O` [MG, mycosporine-glycine], the extinction coefficient in data set [2] is reported as 28,100 M^−1 cm^−1.
